# Measurements taken from ChEMBL document CHEMBL1129861, “SAR for MHC class II binding tetrapeptides: Correlation with potential binding site” (Bioorg Med Chem Lett, 1997).
# Residues, ends and D or L forms follow the SMILES beside them. *: point of attachment. Ethoxycarbonyl = CCOC(=O)*
# How the values were obtained:
# HLA-DRB1*01:01 [1] = assay: Inhibitory concentration to inhibit the binding of biotinylated rat myelin basic protein peptide (RMBP90-102) against DR1 allele of class II MHC for 20 min
# HLA-DRB1*01:01 [2] = assay: Inhibitory concentration required to inhibit the binding of biotinylated rat myelin basic protein peptide (RMBP90-102) against DR1 allele of class II for 5 hr
# Rattus norvegicus [3] = species: Rattus norvegicus; assay: Inhibitory concentration of compound to inhibit the binding of biotinylated rat myelin basic protein peptide (RMBP90-102) against DR4 allele of class II for 20 min; assay type: functional
# Rattus norvegicus [4] = species: Rattus norvegicus; assay: Inhibitory concentration of compound to inhibit the binding of biotinylated rat myelin basic protein peptide (RMBP90-102) against DR4 allele of class II for 5 hr; assay type: functional
# Rattus norvegicus [5] = species: Rattus norvegicus; assay: Inhibitory concentration of compound to inhibit the binding of biotinylated rat myelin basic protein peptide (RMBP90-102) against DR1 allele of class II for 45 min; assay type: functional
IC50 (HLA-DRB1*01:01 [1]) [nM],IC50 (HLA-DRB1*01:01 [2]) [nM],IC50 (Rattus norvegicus [3]) [nM],IC50 (Rattus norvegicus [4]) [nM],IC50 (Rattus norvegicus [5]) [nM],Structure (SMILES)
270,7000,–,–,–,CCOC(=O)N[C@H](CSCc1ccccc1)C(=O)N[C@H](C(=O)N[C@@H](C)C(=O)N[C@@H](CC(C)C)C(N)=O)C(C)C
5300,28000,–,–,–,CCOC(=O)N[C@H](Cc1cccnc1)C(=O)N[C@H](C(=O)N[C@@H](C)C(=O)N[C@@H](CC(C)C)C(N)=O)C(C)C
–,–,8200,–,–,CCOC(=O)N[C@@H](Cc1ccccc1)C(=O)N[C@H](C(=O)N[C@@H](C)C(=O)N[C@@H](CC(C)C)C(N)=O)C(C)C (Ethoxycarbonyl-FVAL-NH2)

# The next lines start with the compound.
Structure (SMILES),IC50 (HLA-DRB1*01:01 [1]) [nM],IC50 (HLA-DRB1*01:01 [2]) [nM],IC50 (Rattus norvegicus [3]) [nM],IC50 (Rattus norvegicus [4]) [nM],IC50 (Rattus norvegicus [5]) [nM]
CCOC(=O)N[C@@H](Cc1ccccc1)C(=O)N[C@H](C(=O)N[C@@H](C)C(=O)N[C@@H](CC(=O)O)C(N)=O)C(C)C (Ethoxycarbonyl-FVAD-NH2),–,–,1200,50000,–
CCOC(=O)N[C@H](Cc1ccc(OC(C)=O)cc1)C(=O)N[C@H](C(=O)N[C@@H](C)C(=O)N[C@@H](CC(C)C)C(N)=O)C(C)C,240,1900,–,–,–
CC(C)C[C@H](NC(=O)[C@H](C)NC(=O)[C@@H](NC(=O)[C@@H](N)Cc1ccccc1)C(C)C)C(N)=O (H-FVAL-NH2),–,–,–,–,1800
CCOC(=O)N[C@H](Cc1ccc(OC)cc1)C(=O)N[C@H](C(=O)N[C@@H](C)C(=O)N[C@@H](CC(C)C)C(N)=O)C(C)C,46,180,–,–,–
CCOC(=O)N[C@H](Cc1ccc(Cl)cc1)C(=O)N[C@H](C(=O)N[C@@H](C)C(=O)N[C@@H](CC(C)C)C(N)=O)C(C)C,19,73,–,–,–
CCOC(=O)N[C@H](CC(=O)c1ccccc1)C(=O)N[C@H](C(=O)N[C@@H](C)C(=O)N[C@@H](CC(C)C)C(N)=O)C(C)C,5700,45000,–,–,–
